This experiment deals with human P2X7 (Homo sapiens (Human), UniProt Q99572). Briefly: P2X7 antagonism in human PBMCs (IL-1β release after LPS + Bz-ATP, ELISA). Particulars: for PBMC 10 μM (% control): test compound 10 μM; for PBMC 1 μM (% control): test compound 1 μM. The class given is cell-based. For orientation: An ELISA detects its analyte on a solid surface through an enzyme-linked reagent.

The values below come from US10112937B2, “P2X7 modulators and methods of use” (Janssen Pharmaceutica NV, priority 2013, dated 2018).

Where a name gives a salt, the structure may show the parent alone.

Sequence of human P2X7 (Q99572 whole entry): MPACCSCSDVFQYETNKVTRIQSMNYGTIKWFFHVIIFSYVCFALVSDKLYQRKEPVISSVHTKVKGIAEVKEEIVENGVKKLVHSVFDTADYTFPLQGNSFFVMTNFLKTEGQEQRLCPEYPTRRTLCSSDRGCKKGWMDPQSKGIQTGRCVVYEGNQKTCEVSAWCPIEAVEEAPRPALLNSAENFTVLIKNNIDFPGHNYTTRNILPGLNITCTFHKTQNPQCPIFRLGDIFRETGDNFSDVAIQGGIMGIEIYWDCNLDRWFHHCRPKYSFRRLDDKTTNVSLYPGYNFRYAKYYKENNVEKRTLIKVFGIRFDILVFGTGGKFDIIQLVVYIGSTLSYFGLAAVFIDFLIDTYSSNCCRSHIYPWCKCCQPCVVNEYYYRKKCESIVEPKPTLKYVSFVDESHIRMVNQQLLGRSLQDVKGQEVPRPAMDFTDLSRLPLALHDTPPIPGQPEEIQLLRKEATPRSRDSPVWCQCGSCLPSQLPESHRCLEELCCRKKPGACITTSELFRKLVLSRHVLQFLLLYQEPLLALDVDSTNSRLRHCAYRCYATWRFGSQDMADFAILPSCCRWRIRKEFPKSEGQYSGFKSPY

With `Cc1ccc(-n2nnc3c2CCN(C(=O)c2cccc(C(F)(F)F)c2Cl)C3C)nc1` (centres unmarked) [Example 301, (2-chloro-3-(trifluoromethyl)phenyl)(4-methyl-1-(5-methylpyridin-2-yl)-6,7-dihydro-1H-[1,2,3]triazolo[4,5-c]pyridin-5(4H)-yl)methanone], the “PBMC 10 μM (% control)” value (human PBMCs) was −2.2 % control. Same read-out and setting: as for `Cc1nc2c(n1-c1ccccc1)CCN(C(=O)c1cccc(C(F)(F)F)c1Cl)C2` [Example 37, (2-Chloro-3-(trifluoromethyl)phenyl)(2-methyl-1-phenyl-6,7-dihydro-1H-imidazo[4,5-c]pyridin-5(4H)-yl)methanone], the figure is −9.1 % control. Still for that read-out and setting: as for `CC1Cc2c(nnn2-c2ccn[nH]2)CN1C(=O)c1cccc(C(F)(F)F)c1F` (centres unmarked) [Example 189, (2-fluoro-3-(trifluoromethyl)phenyl)(6-methyl-1-(1H-pyrazol-3-yl)-6,7-dihydro-1H-[1,2,3]triazolo[4,5-c]pyridin-5(4H)-yl)methanone], the figure is 0.5 % control.

`CC1c2ncn(-c3ccccn3)c2CCN1C(=O)c1cccc(C(F)(F)F)c1F` (single isomer, unassigned) [Example 42, (4R*)-5-{[2-Fluoro-3-(trifluoromethyl)phenyl]carbonyl}-4-methyl-1-pyridin-2-yl-4,5,6,7-tetrahydro-1H-imidazo[4,5-c]pyridine]: the “PBMC 10 μM (% control)” value is, setting by setting: (human PBMCs) 5.8 % control; (LPS 30 ng/ml + 0.5 mM Bz-ATP) 5.8 % control. Consider `O=C(c1cccc(C(F)(F)F)c1Cl)N1CCc2c(-c3ccccn3)n[nH]c2C1` [Example 93, 6-{[2-Chloro-3-(trifluoromethyl)phenyl]carbonyl}-3-pyridin-2-yl-4,5,6,7-tetrahydro-2H-pyrazolo[3,4-c]pyridine-TFA salt], for which the “PBMC 1 μM (% control)” value (human PBMCs) came out at 9.0 % control. For the compound `CC1c2nnn(-c3cnccn3)c2CCN1C(=O)c1ccc(Cl)cc1F` (centres unmarked) [Example 274, (4-chloro-2-fluorophenyl)(4-methyl-1-(pyrazin-2-yl)-6,7-dihydro-1H-[1,2,3]triazolo[4,5-c]pyridin-5(4H)-yl)methanone], the “PBMC 10 μM (% control)” value (human PBMCs) is −4.8 % control. The same measure, in the same setting: as for `C[C@@H]1Cc2c(nnn2-c2ncccc2F)CN1C(=O)c1cccc(C(F)(F)F)c1Cl` (single isomer, unassigned) [Example 167, (6R*)-5-{[2-Chloro-3-(trifluoromethyl)phenyl]carbonyl}-1-(3-fluoropyridin-2-yl)-6-methyl-4,5,6,7-tetrahydro-1H-[1,2,3]triazolo[4,5-c]pyridine], the figure is 4.2 % control; as for `CC1CN(C(=O)c2cccc(C(F)(F)F)c2Cl)C(C)c2nnn(-c3ccccc3)c21` (centres unmarked) [Example 241, (2-Chloro-3-(trifluoromethyl)phenyl)(4,7-dimethyl-1-phenyl-6,7-dihydro-1H-[1,2,3]triazolo[4,5-c]pyridin-5(4H)-yl)methanone], 6.5 % control; as for `C[C@H]1c2nnn(-c3ccn(CCF)n3)c2CCN1C(=O)c1cccc(C(F)(F)F)c1Cl` (single isomer, unassigned) [Example 172, (S*)-(2-Chloro-3-(trifluoromethyl)phenyl)(1-(1-(2-fluoroethyl)-1H-pyrazol-3-yl)-4-methyl-6,7-dihydro-1H-[1,2,3]triazolo[4,5-c]pyridin-5(4H)-yl)methanone], −6.0 % control. The same measure, in the same setting: as for `C[C@@H]1c2nnn(-c3ncc(F)cn3)c2CCN1C(=O)c1cccc(C(F)(F)F)c1F` (single isomer, unassigned) [Example 190, (R*)-(2-fluoro-3-(trifluoromethyl)phenyl)(1-(5-fluoropyrimidin-2-yl)-4-methyl-6,7-dihydro-1H-[1,2,3]triazolo[4,5-c]pyridin-5(4H)-yl)methanone], the figure is 7.1 % control. Still for that read-out and setting: as for `CC1Cc2c(nnn2-c2ncc(F)cn2)CN1C(=O)c1ccc(Cl)c(F)c1Cl` (centres unmarked) [Example 216, 5-[(2,4-Dichloro-3-fluorophenyl)carbonyl]-1-(5-fluoropyrimidin-2-yl)-6-methyl-4,5,6,7-tetrahydro-1H-[1,2,3]triazolo[4,5-c]pyridine], the figure is 0.6 % control; as for `C[C@H]1Cc2c(nnn2-c2ncc(F)cn2)CN1C(=O)c1ccc(Cl)c(F)c1Cl` (single isomer, unassigned) [Example 218, (6S*)-5-[(2,4-Dichloro-3-fluorophenyl)carbonyl]-1-(5-fluoropyrimidin-2-yl)-6-methyl-4,5,6,7-tetrahydro-1H-[1,2,3]triazolo[4,5-c]pyridine], 6.1 % control; as for `CC1c2nnn(-c3ncccn3)c2CCN1C(=O)c1cccc(C(F)(F)F)c1Cl` (centres unmarked) [Example 80, 5-{[2-Chloro-3-(trifluoromethyl)phenyl]carbonyl}-4-methyl-1-pyrimidin-2-yl-4,5,6,7-tetrahydro-1H-[1,2,3]triazolo[4,5-c]pyridine], 4.6 % control. Turning to `CC1CN(C(=O)c2cccc(Cl)c2Cl)Cc2nnn(-c3ccc(F)cc3)c21` (centres unmarked) [Example 247, (2,3-Dichlorophenyl)(1-(4-fluorophenyl)-7-methyl-6,7-dihydro-1H-[1,2,3]triazolo[4,5-c]pyridin-5(4H)-yl)methanone], under “human PBMCs”, the “PBMC 10 μM (% control)” value is on record as −0.8 % control. In the case of `Cc1cccc(-n2nnc3c2CCN(C(=O)c2cccc(C(F)(F)F)c2Cl)[C@H]3C)n1` (single isomer, unassigned) [Example 227, (S*)-(2-chloro-3-(trifluoromethyl)phenyl)(4-methyl-1-(6-methylpyridin-2-yl)-6,7-dihydro-1H-[1,2,3]triazolo[4,5-c]pyridin-5(4H)-yl)methanone], the “PBMC 10 μM (% control)” value (human PBMCs) was −0.4 % control. Regarding `CCOc1cccnc1-n1nnc2c1CCN(C(=O)c1cccc(C(F)(F)F)c1Cl)C2C` (centres unmarked) [Example 258, (2-Chloro-3-(trifluoromethyl)phenyl)(1-(3-ethoxypyridin-2-yl)-4-methyl-6,7-dihydro-1H-[1,2,3]triazolo[4,5-c]pyridin-5(4H)-yl)methanone], the “PBMC 10 μM (% control)” value (human PBMCs) is listed as −3.2 % control. Still for that read-out and setting: as for `CC1Cc2c(nnn2-c2ncccc2F)CN1C(=O)c1cccc(C(F)(F)F)c1Cl` (centres unmarked) [Example 122, 5-{[2-Chloro-3-(trifluoromethyl)phenyl]carbonyl}-1-(3-fluoropyridin-2-yl)-6-methyl-4,5,6,7-tetrahydro-1H-[1,2,3]triazolo[4,5-c]pyridine], the figure is 0.2 % control. As to `CC1c2nnn(-c3cnccn3)c2CCN1C(=O)c1cccc(C(F)(F)F)c1Cl` (centres unmarked) [Example 73, 5-{[2-Chloro-3-(trifluoromethyl)phenyl]carbonyl}-4-methyl-1-pyrazin-2-yl-4,5,6,7-tetrahydro-1H-[1,2,3]triazolo[4,5-c]pyridine], the “PBMC 1 μM (% control)” value (human PBMCs) came out at 4.3 % control. For `O=C(c1cccc(C(F)(F)F)c1Cl)N1CCc2c(nnn2-c2cnccn2)C1` [Example 91, 5-{[2-Chloro-3-(trifluoromethyl)phenyl]carbonyl}-1-pyrazin-2-yl-4,5,6,7-tetrahydro-1H-[1,2,3]triazolo[4,5-c]pyridine], for the setting “human PBMCs”, the “PBMC 1 μM (% control)” value was found to be 6.1 % control. For `CC1c2ncn(-c3ccc(F)cc3)c2CCN1C(=O)c1cccc(C(F)(F)F)c1F` (centres unmarked) [Example 20, (2-Fluoro-3-(trifluoromethyl)phenyl)(1-(4-fluorophenyl)-4-methyl-6,7-dihydro-1H-imidazo[4,5-c]pyridin-5(4H)-yl)methanone], under “human PBMCs”, the “PBMC 10 μM (% control)” value turned out to be 8.6 % control. On the same count and under the same terms, as for `Cc1cccnc1-n1nnc2c1CCN(C(=O)c1cccc(C(F)(F)F)c1Cl)C2C` (centres unmarked) [Example 259, (2-Chloro-3-(trifluoromethyl)phenyl)(4-methyl-1-(3-methylpyridin-2-yl)-6,7-dihydro-1H-[1,2,3]triazolo[4,5-c]pyridin-5(4H)-yl)methanone], the figure is −3.5 % control; as for `C[C@@H]1Cc2c(nnn2-c2ccn[nH]2)[C@H](C)N1C(=O)c1cccc(C(F)(F)F)c1Cl` [Example 297, (2-chloro-3-(trifluoromethyl)phenyl)((4S,6R)-4,6-dimethyl-1-(1H-pyrazol-5-yl)-6,7-dihydro-1H-[1,2,3]triazolo[4,5-c]pyridin-5(4H)-yl)methanone], 2.6 % control; as for `CC1Cc2c(nnn2-c2cnccn2)CN1C(=O)c1cccc(C(F)(F)F)c1Cl` (centres unmarked) [Example 209, 5-{[2-Chloro-3-(trifluoromethyl)phenyl]carbonyl}-6-methyl-1-pyrazin-2-yl-4,5,6,7-tetrahydro-1H-[1,2,3]triazolo[4,5-c]pyridine], −1.0 % control. The same measure, in the same setting: as for `C[C@@H]1c2nnn(-c3cc[nH]n3)c2CCN1C(=O)c1cccc(C(F)(F)F)c1Cl` (single isomer, unassigned) [Example 133, (R*)-(2-Chloro-3-(trifluoromethyl)phenyl)(4-methyl-1-(1H-pyrazol-5-yl)-6,7-dihydro-1H-[1,2,3]triazolo[4,5-c]pyridin-5(4H)-yl)methanone], the figure is −0.2 % control.

On to `CC1CN(C(=O)c2cccc(Cl)c2Cl)Cc2nnn(-c3ccccc3)c21` (centres unmarked) [Example 244, (2,3-Dichlorophenyl)(7-methyl-1-phenyl-6,7-dihydro-1H-[1,2,3]triazolo[4,5-c]pyridin-5(4H)-yl)methanone], for which the “PBMC 10 μM (% control)” value (human PBMCs) is −2.3 % control. Still for that read-out and setting: as for `CCc1nc2c(n1-c1ccccc1)CCN(C(=O)c1cccc(Cl)c1Cl)C2` [Example 332, (2,3-dichlorophenyl)(2-ethyl-1-phenyl-6,7-dihydro-1H-imidazo[4,5-c]pyridin-5(4H)-yl)methanone], the figure is −9.5 % control. Turning to `C[C@H]1c2nnn(-c3ncc(F)cn3)c2CCN1C(=O)c1cccc(C(F)(F)F)c1F` (single isomer, unassigned) [Example 178, (S*)-(2-fluoro-3-(trifluoromethyl)phenyl)(1-(5-fluoropyrimidin-2-yl)-4-methyl-6,7-dihydro-1H-[1,2,3]triazolo[4,5-c]pyridin-5(4H)-yl)methanone], the “PBMC 10 μM (% control)” value is −4.7 % control (human PBMCs) and −4.7 % control (LPS 30 ng/ml + 0.5 mM Bz-ATP).
